Values after ≈ are worked out from the molar mass of the structure shown. Values joined by “and” are separate entries in the source; they are usually repeats but may differ in a detail not shown here. Equal entries are not always repeated.
Legend:
[1] = tested on: Escherichia coli VKPM (B-7935); assay: Biofilm formation assay (MTT); assay type: cell-based; conditions: E. coli, 18 h
Description: (§1) The Gram-positive bacterial Staphylococcus aureus ATCC 21027, Gram-negative bacterial Escherichia coli VKPM (B-7935), and yeast-like fungal Candida albicans KMM 455 strains were fermented on solid medium Mueller Hinton broth with agar (16.0 g/L) in a Petri dish at 37 °C for 24 h. The antimicrobial activity of the compound was tested at concentrations ranging from 100 µM and lower. The effect of the compound on bacterial growth was estimated as described by. Gentamicin and amphotericin B were used as positive controls against S. aureus, E. coli, and C. albicans, and a 1% dimethyl sulfoxide (DMSO) solution in PBS was used as a negative control. The optical density of the bacterial suspension after 18 h was measured at λ = 620 nm. The effect of the compound on biofilm formation for 18 h was tested using MTT reagent (Sigma-Aldrich, St. Louis, MO, USA) in accordance with. The optical density of the obtained solution was measured at λ = 570 nm. A Multiskan FS spectrophotometer (Thermo Scientific Inc., Beverly, MA, USA) was used for both assays. The results were calculated as percentages of the control data and presented as minimal concentrations reduced by 50% of growth or biofilm formation (MIC50).

[2] = tested on: Staphylococcus aureus ATCC 21027; assay: Biofilm formation assay (MTT); assay type: cell-based; conditions: S. aureus, 18 h
Description: as §1

[3] = tested on: Candida albicans KMM 455; assay: Biofilm formation assay (MTT); assay type: cell-based; conditions: C. albicans, 18 h
Description: as §1

[4] = tested on: Escherichia coli VKPM (B-7935); assay: Antimicrobial assay, growth inhibition (optical density); assay type: cell-based; conditions: E. coli, 18 h
Description: as §1

[5] = tested on: Staphylococcus aureus ATCC 21027; assay: as above; assay type: cell-based; conditions: S. aureus, 18 h
Description: as §1

[6] = tested on: Candida albicans KMM 455; assay: as above; assay type: cell-based; conditions: Candida albicans, KMM455, 18 h, C. albicans, 18 h
Description: as §1

[7] = tested on: H9c2 cardiomyocytes; assay: Cell viability assay (MTT); assay type: cell-based, rat
Text: (§2) Rat cardiomyocyte H9c2 cells were kindly provided by Prof. Dr. Gunhild von Amsberg from the Martini-Klinik Prostate Cancer Center, University Hospital Hamburg-Eppendorf, Hamburg, Germany. The human HaCaT keratinocyte cell line was kindly provided by Prof. N. Fusenig (Cancer Research Centre, Heidelberg, Germany). Non-cancerous human breast epithelial MCF-10A cells were kindly provided by Dr. Irina Zhitnyak (N. N. Blokhin National Medical Research Center of Oncology, Moscow, Russia). Human breast cancer MCF-7 HTB-22 and MDA-MB-231 cells were obtained from the ATTC (Manassas, VA, USA).
(§3) H9c2 and HaCaT cells were cultured in DMEM with 10% fetal bovine serum and 1% penicillin/streptomycin (BioloT, St. Petersburg, Russia). MCF-7 and MDA-MB-231 cells were cultured in MEM (BioloT, St. Petersburg, Russia) with 10% fetal bovine serum (FBS) and 1% penicillin/streptomycin (BioloT, St. Petersburg, Russia). MCF 10A cells were cultured in DMEM F12 medium (BioloT, St. Petersburg, Russia) supplemented with 20% FBS, 20 ng/mL hrEGF (Sci-Store, Moscow, Russia), and 1% penicillin/streptomycin (BioloT, St. Petersburg, Russia). All cells were cultured at 37 °C in a humidified atmosphere containing 5% CO2.
(§4) H9c2 cells were seeded at a concentration of 3 × 10^3 cells/well. MCF-10A, MCF-7, and MDA-MB-231 cells were seeded at 5 × 10^3 cells/well, and HaCaT cells were seeded at 1 × 10^4 cells/well. The experiments were initiated after 24 h.
(§5) Compounds at concentrations up to 100 µM were added to the wells for 24h or 48 h, and the viability of the cells was measured using an MTT (3-(4,5-dimethylthiazol-2-yl)-2,5-diphenyltetrazolium bromide) assay, which was performed according to the manufacturer’s instructions (Sigma-Aldrich, Munich, Germany). […] DMSO was used as a control. The results are presented as percentages of the control data.

[8] = tested on: MCF-10A breast epithelial cells; assay: Cell viability assay (MTT); assay type: cell-based, human; conditions: MCF10A
Text: as §2, §3, §4, §5

[9] = tested on: HaCaT keratinocytes; assay: Cell viability assay (MTT); assay type: cell-based, human
Text: as §2, §3, §4, §5

[10] = tested on: MDA-MB-231 breast cancer cells; assay: Cell viability assay (MTT); assay type: cell-based, human
Text: as §2, §3, §4, §5

[11] = tested on: MCF-7 breast cancer cells; assay: Cell viability assay (MTT); assay type: cell-based, human
Text: as §2, §3, §4, §5

Structure (SMILES): Cc1c(C)c(O)c2c(c1C)C(C)(O)OC2=O (centres unmarked) [Compound 3, sclerolide]
- Biofilm formation, MIC50 [1]: 43.51 µM and 43.51 ± 4.03 µM
- Biofilm formation, MIC50 [2]: 31.14 µM and 31.14 ± 2.34 µM
- Biofilm formation, MIC50 [3]: >100 µM
- Growth inhibition, MIC50 [4]: 21.07 ± 2.11 µM
- MIC50 ([4]; Escherichia coli): 21.1 µM (≈ 4.68 µg/mL)
- Growth inhibition, MIC50 [5]: 20.34 ± 2.58 µM
- MIC50 ([5]; Staphylococcus aureus, ATCC21027, 18 h): 20.3 µM (≈ 4.52 µg/mL)
- MIC50 [6]: > 100 µM
- cell viability ([7]; H9c2, 24 h, 1.0 µM): 81.1 ± 3.2 % of control
- cell viability ([7]; H9c2, 24 h, 10.0 µM): 88.7 ± 4.4 % of control
- cell viability ([7]; H9c2, 24 h, 100.0 µM): 74.6 ± 8.3 % of control
- cell viability ([7]; H9c2, 48 h, 1.0 µM): 102.0 ± 5.5 % of control
- cell viability ([7]; H9c2, 48 h, 10.0 µM): 102.7 ± 6.7 % of control
- cell viability ([7]; H9c2, 48 h, 100.0 µM): 62.5 ± 4.6 % of control
- decrease of viability ([7]; H9c2, at 100 µM, range given for H9c2 and HaCaT together): 30.0–37.5%
- IC50 ([8]; Homo sapiens, MCF-10A, time not stated, read-out: half-maximal concentration (IC50), viability): ~100 µM
- cell viability ([8]; 24 h, 1.0 µM): 101.7 ± 1.3 % of control
- cell viability ([8]; 24 h, 10.0 µM): 92.2 ± 3.5 % of control
- cell viability ([8]; 24 h, 100.0 µM): 62.5 ± 2.2 % of control
- cell viability ([8]; 48 h, 1.0 µM): 101.6 ± 5.1 % of control
- cell viability ([8]; 48 h, 10.0 µM): 74.4 ± 2.4 % of control
- cell viability ([8]; 48 h, 100.0 µM): 47.5 ± 7.0 % of control
- cell viability ([9]; 24 h, 1.0 µM): 94.4 ± 5.9 % of control
- cell viability ([9]; 24 h, 10.0 µM): 100.2 ± 3.0 % of control
- cell viability ([9]; 24 h, 100.0 µM): 63.0 ± 8.6 % of control
- cell viability ([9]; 48 h, 1.0 µM): 96.8 ± 1.0 % of control
- cell viability ([9]; 48 h, 10.0 µM): 96.6 ± 4.1 % of control
- cell viability ([9]; 48 h, 100.0 µM): 69.4 ± 3.5 % of control
- decrease of viability ([9]; at 100 µM, range given for H9c2 and HaCaT together): 30.0–37.5%
- cell viability ([10]; MDA-MB-231, 24 h, 1.0 µM): 99.8 ± 1.3 % of control
- cell viability ([10]; MDA-MB-231, 24 h, 10.0 µM): 100.6 ± 5.7 % of control
- cell viability ([10]; MDA-MB-231, 24 h, 100.0 µM): 68.6 ± 8.3 % of control
- cell viability ([10]; MDA-MB-231, 48 h, 1.0 µM): 107.6 ± 2.8 % of control
- cell viability ([10]; MDA-MB-231, 48 h, 10.0 µM): 99.0 ± 5.1 % of control
- cell viability ([10]; MDA-MB-231, 48 h, 100.0 µM): 60.9 ± 3.6 % of control
- cell viability ([11]; MCF-7, 24 h, 1.0 µM): 107.2 ± 8.9 % of control
- cell viability ([11]; MCF-7, 24 h, 10.0 µM): 95.6 ± 2.4 % of control
- cell viability ([11]; MCF-7, 24 h, 100.0 µM): 70.2 ±5.5 % of control
- cell viability ([11]; MCF-7, 48 h, 1.0 µM): 83.8 ± 3.1 % of control
- cell viability ([11]; MCF-7, 48 h, 10.0 µM): 76.0 ± 2.6 % of control
- cell viability ([11]; MCF-7, 48 h, 100.0 µM): 55.1 ± 1.0 % of control

Reference: PMC12471299, “Secondary Metabolites of the Marine Sponge-Derived Fungus Aspergillus subramanianii 1901NT-1.40.2 and Their Antimicrobial and Anticancer Activities” (Marine Drugs, 2025)
